Laboratory results as given in ChEMBL document CHEMBL5344475, “Indole-containing pharmaceuticals: targets, pharmacological activities, and SAR studies” (RSC Med Chem, 2024).

How the values were obtained:
[1] = Half life in human plasma; assay type: ADME, cell-free
[2] = Plasma protein binding in human assessed as unbound fraction; assay type: ADME, cell-free
[3] = Inhibition of tyrosine kinase (unknown origin); set-up: species or system Homo sapiens
[4] = Volume of distribution at steady state in iv dosed human; details: in vivo, read-out: Vdss
[5] = biological target: T1, DNA polymerase alpha catalytic subunit (Homo sapiens, UniProt P09884); test: Inhibition of DNA polymerase alpha (unknown origin)
T1 sequence (P09884 whole entry): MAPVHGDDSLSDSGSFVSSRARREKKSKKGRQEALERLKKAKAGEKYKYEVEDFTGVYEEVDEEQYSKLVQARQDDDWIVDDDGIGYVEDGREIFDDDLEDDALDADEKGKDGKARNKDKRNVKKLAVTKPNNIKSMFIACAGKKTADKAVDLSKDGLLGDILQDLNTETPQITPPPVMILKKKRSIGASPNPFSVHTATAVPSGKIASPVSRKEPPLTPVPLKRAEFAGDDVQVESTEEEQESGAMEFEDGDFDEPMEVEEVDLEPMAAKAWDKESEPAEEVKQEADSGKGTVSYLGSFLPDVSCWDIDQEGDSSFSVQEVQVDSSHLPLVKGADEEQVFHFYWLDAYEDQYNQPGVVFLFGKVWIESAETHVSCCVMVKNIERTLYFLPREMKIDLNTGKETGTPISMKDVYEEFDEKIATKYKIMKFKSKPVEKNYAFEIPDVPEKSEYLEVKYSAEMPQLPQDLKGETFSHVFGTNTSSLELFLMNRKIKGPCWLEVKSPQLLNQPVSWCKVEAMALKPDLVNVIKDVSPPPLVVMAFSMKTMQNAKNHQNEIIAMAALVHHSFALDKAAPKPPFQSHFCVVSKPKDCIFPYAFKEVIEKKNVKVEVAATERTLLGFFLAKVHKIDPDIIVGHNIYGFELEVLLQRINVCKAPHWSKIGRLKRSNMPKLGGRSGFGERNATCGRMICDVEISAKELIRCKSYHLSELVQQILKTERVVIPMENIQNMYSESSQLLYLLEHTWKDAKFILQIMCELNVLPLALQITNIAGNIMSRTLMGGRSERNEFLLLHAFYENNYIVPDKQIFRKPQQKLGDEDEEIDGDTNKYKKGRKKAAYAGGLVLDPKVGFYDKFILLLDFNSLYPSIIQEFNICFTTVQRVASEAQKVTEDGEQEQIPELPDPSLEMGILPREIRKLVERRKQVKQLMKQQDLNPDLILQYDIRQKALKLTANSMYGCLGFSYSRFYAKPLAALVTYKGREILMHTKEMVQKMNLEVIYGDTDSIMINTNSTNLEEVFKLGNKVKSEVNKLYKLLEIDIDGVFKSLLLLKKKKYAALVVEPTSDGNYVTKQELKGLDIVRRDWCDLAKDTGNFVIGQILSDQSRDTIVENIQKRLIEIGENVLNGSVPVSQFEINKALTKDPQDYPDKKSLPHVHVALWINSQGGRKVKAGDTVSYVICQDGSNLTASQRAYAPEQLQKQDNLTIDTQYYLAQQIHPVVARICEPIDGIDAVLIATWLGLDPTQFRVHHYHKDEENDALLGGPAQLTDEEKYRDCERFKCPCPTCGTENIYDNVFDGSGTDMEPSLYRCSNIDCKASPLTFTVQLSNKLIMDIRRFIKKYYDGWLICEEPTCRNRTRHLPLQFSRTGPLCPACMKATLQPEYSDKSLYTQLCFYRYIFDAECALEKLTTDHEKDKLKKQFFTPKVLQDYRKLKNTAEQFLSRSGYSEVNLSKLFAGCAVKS

Row | IC50 [5] [nM] | Structure (SMILES) | half-life [1] [h] | Fu [2] [%] | IC50 [3] [nM] | Vd [4] [L]
1 | – | C=CC(=O)Nc1cc(Nc2nccc(-c3cn(C)c4ccccc34)n2)c(OC)cc1N(C)CCN(C)C [OSIMERTINIB] | 48 | 5 | 27.6 | 918
2 | 0.4 | CNCc1ccc(-c2[nH]c3cc(F)cc4c3c2CCNC4=O)cc1 [RUCAPARIB] | 17 | – | – | –
